Data set [1] concerns PAEC/PDGFR cells. The data set can be described thus: Proliferation of PDGFβR transfected PAEC cells ([3H]thymidine incorporation). Type of data set: cell-based, porcine. The following applies: Sus scrofa, read-out: IC50 (50% inhibition of proliferation) PDGFβR. As to the method: (§1) Porcine aortic endothelial cells (PAEC), stably transfected with either PDGF-receptor (PAEC/PDGFβR cells, kindly provided by Dr. L. Claesson-Welsh, Uppsala, Sweden) or VEGF-receptor KDR (PAEC/KDR), respectively, were used as previously described. Cells were routinely cultured in Ham's F-12 medium supplemented with geneticin (0.4 mg/ml) and 10% FCS.
(§2) Assessment of cell proliferation ([^3H]thymidine incorporation assay): PAEC/KDR and PAEC/PDGFR cells, grown in Ham's F12 medium containing 10% FCS were seeded sparsely in 12 well culture dishes. After 24 hours, cells were washed two times with Ham's F12 medium containing 1% FCS and incubated for additional 48 hours with one renewal of medium. Cells were incubated for 15 minute with different concentrations of AG2033 (0.1; 1 and 10 μM) or with the solvent DMSO alone, stimulated with 3 ng/ml VEGF or with 15 ng/ml PDGF-BB for 20 hours, followed by addition of 0.25 μCi of [^3H]-thymidine/ml (Amersham) for two hours. High molecular weight [^3H]-radioactivity was precipitated using 5% trichloroacetic acid at 4° C. for 30 minutes. After two washes with ice-cold H2O, [^3H]-radioactivity was solubilized in 1 M NaOH (400 μl/well) at room temperature for 8 minutes, neutralized by the addition of 2 M HCL (400 μl/well), and quantitated by liquid scintillation counting. […]
For orientation: Incorporation of labelled thymidine or its analogues reports DNA synthesis.

In data set [2] the test system is PAEC/PDGFR cells. The data set can be described thus: Migration of PDGFβR transfected PAEC cells toward PDGF-BB (Boyden chamber). In kind it is cell-based, porcine. As to conditions: Sus scrofa, PDGF-BB 10 ng/ml, read-out: IC50 (50% inhibition of migration) PDGFβR. As to the method:
(§3) Assessment of cell migration (Chemotaxis assay): The chemotactic response of HCASMC, PAEC/KDR and PAEC/PDGFR cells was assessed using the modified Boyden chamber (Neuro Probe, Inc.) and collagen-coated polycarbonate filters (Nucleopore) with pore diameters of 8 μm as previously described. Briefly, PAEC/KDR and PAEC/PDGFR cells were cultivated and assayed in Ham's F12 medium containing 10% FCS. HCASMC were cultivated in SmGM-2 (clonetics) and assayed in SmBM-WM containing 10% FCS and 0.1% BSA. To the medium in the lower part of the Boyden chamber, either VEGF or PDGF-BB (10 ng/ml, respectively) were added. AG2033 was added to both upper and lower chamber parts. Suspended cells were given 4 hours for migration, after a preincubation period of 15 minute in AG2033. The number of cells that migrated without PDGF-BB or VEGF stimulation was referred to as 100% migration (chemokinesis). The assay was performed in triplicate, and five medium-power fields were counted per well using a light microscope (Jenalab).
(§4) Evaluation of PDGFβR or KDR stably transfected PAEC cells migration toward the respective growth factors, PDGD-BB and VEGF (10 ng/ml, respectively), in the presence of the purified AG2033 isomer, was conducted in a Boyden chamber (see experimental section, above). […]

Data set [3] relates to PAEC/KDR cells. The experiment in a line: Proliferation of KDR transfected PAEC cells ([3H]thymidine incorporation). Type of data set: cell-based, porcine. As to conditions: Sus scrofa, read-out: IC50 (50% inhibition of proliferation) KDR. As to the method: as §1, §2
Data set [4] relates to PAEC/KDR cells. The data set can be described thus: Migration of KDR transfected PAEC cells toward VEGF (Boyden chamber). Type of data set: cell-based, porcine. The following applies: Sus scrofa, VEGF 10 ng/ml, read-out: IC50 (50% inhibition of migration) KDR. As to the method: as §3, §4
Data set [5] deals with T1, PDGFβR (Mus musculus, UniProt P05622).
T1 construct: A preparation of purified PDGFR from Swiss 3T3 cell membranes was used; endogenous in cells
The data set can be described thus: PDGF-induced PDGFβR autophosphorylation in intact Swiss 3T3 cells (FIG. 8). In kind it is cell-based. As to conditions: at 1 μM. As to the method:
Kinase reactions, using an isolated PDGFβR preparation, in the presence of 0.03-3 μM tyrphostin, were conducted, utilizing [γ-^32P]ATP as probe. Densitometric evaluation, relative to control lacking the tyrphostin inhibitor (100%), results in the percent autokinase activity, presented in Table 8 and in the dose-response curves for the purified transoid isomers AG2033 (FIG. 6) and AG2043 (FIG. 7). Further comparison between the resulting autoradiogrms for each pair of geometrical isomers AG2033 and AG2034 (upper panel); AG2043 and AG2044 (lower panel), for their inhibitory activity towards PDGF-induced PDGFβR autophosphorylation (concentration range: 0.1-10 μM) in intact cells is presented in FIG. 8. […] Similar potency relation exists between the AG2043 and AG2044 isomers.

For data set [6], the system named is porcine SMC. The experiment in a line: Inhibition of SMC proliferation and recovery (cell count). Type of data set: cell-based. As to conditions: 10 μM. As to the method: Smooth muscle cells (SMC) were obtained under aseptic conditions from porcine abdominal aortas. Each artery was cut open and the endothelial surface mechanically scraped. The vessels were then cut into 2 mm^2 fragments which were placed in culture dishes with Dulbecco's modified Eagle's medium (DMEM) supplemented with 15% (v/v) fetal calf serum (FCS), 100 u/ml penicillin, 100 μg/ml streptomycin, and […]. The tissue fragments were then placed in an incubator at 37° C. under 9% CO2 atmosphere until SMC outgrowth was detected (typically within 3-7 days). […] For experiments testing the effect of tyrphostins on growth inhibition and recovery (see below), SMC from passages 1-3 were replated in 15 mm wells pretreated with 3 μg/cm^2 fibronectin (Biological Industries, Kibbutz Beit Haemek, Israel) at 15,000 cells/well.
Inhibition of cell proliferation and recovery: Monolayer cell growth inhibition and recovery experiments were repeated 3 or 4 times. Each experiment was performed in triplicate. Approximately 15,000 cells (SMC or PAEC) in 1 ml of culture medium supplemented with either 15% FCS (SMC) or 10% FCS (PAEC) were seeded on day 0 in 15 mm-wells precoated with fibronectin (SMC) or uncoated (PAEC). Cultures were treated with 10 μM of the following tyrphostin compounds: AG2033, AC2034, AG2043 and AG2044 (for SMC) or AG2033 (for PAEC) dissolved in 0.1% DMSO on days 1 and 3. On day 7, cultures were washed and the cells allowed to recover. Typically cells were counted on days 3 and 6 for inhibition, and on day 13 for recovery. The medium supplemented with serum (DMEM for SMC and Ham's F12 for PAEC) was changed every other day throughout the experiment.
Cells were grown in the presence of the specified tyrphostins and were counted on days 3, 6 and 13 in culture. On day 7 the cultures were washed and the cells allowed to recover. […] The inhibitory effect of all three compounds was reversible, and the cells resumed normal growth response as soon as the treatment with the tyrphostins was withdrawn.

The record followed here is patent publication US6673798B2, “PDGF receptor kinase inhibitory compounds, their preparation, purification and pharmaceutical compositions including same” (Yissum Research Development Company of the Hebrew …, priority 1999, dated 2004).

As usually defined, the melting point is the temperature of the solid-liquid transition.

T1 sequence (P05622 32-1098): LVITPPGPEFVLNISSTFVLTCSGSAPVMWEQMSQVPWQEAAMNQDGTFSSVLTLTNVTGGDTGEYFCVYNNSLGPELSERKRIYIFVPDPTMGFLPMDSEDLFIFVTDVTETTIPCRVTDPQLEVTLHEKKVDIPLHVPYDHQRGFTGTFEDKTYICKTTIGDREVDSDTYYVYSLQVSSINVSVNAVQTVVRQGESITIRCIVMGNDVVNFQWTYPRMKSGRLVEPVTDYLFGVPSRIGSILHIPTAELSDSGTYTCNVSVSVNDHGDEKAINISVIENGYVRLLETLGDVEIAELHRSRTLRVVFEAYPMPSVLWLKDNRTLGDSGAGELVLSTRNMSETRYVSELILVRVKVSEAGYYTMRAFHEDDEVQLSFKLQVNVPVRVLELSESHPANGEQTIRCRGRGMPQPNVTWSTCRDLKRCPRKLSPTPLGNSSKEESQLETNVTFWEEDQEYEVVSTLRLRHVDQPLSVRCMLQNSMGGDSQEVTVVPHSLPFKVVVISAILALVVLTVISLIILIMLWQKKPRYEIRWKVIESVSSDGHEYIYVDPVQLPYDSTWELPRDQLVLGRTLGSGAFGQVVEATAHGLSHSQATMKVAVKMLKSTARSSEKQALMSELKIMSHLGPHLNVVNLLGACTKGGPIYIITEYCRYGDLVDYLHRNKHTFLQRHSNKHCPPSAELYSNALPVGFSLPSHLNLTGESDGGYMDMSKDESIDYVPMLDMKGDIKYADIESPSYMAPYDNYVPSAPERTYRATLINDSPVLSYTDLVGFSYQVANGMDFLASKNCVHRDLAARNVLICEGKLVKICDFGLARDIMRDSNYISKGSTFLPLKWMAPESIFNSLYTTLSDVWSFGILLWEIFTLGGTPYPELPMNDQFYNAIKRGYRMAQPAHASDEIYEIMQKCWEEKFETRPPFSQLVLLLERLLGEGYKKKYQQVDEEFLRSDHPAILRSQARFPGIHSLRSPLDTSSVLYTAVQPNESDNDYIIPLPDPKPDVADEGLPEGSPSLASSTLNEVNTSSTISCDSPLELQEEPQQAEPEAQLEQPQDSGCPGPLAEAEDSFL

The compound `Cc1nc2cc3nc(-c4ccccc4)cnc3cc2n1C` [AG2033, 1,2-dimethyl-6-phenyl imidazolo[5,4-g]quinoxaline] yielded a melting point of 275 °C. In addition, in data set [1], the IC50 came out at 2.5 µM. Moreover, the IC50 in data set [2] was 5 µM. Moreover, the IC50 in data set [3] was > 10 µM. Moreover, the IC50 in data set [4] was > 10 µM. Moreover, the “inhibitory activity towards PDGF-induced PDGFβR autophosphorylation in intact cells” value in data set [5] was “marked inhibitory activity”.
Consider `Cc1nc2cc3nc(-c4cccs4)cnc3cc2n1C` [AG2043, 1,2-dimethyl-6-(2-thiophene) imidazolo[5,4-g]quinoxaline], for which the “toxic effect on the cells” value in data set [6] (SMC) was “without having a substantial toxic effect”. Also, the “mean reduction in SMC count by day 3” value in data set [6] (compared to DMSO treated control cells) came to 46%. In addition, the “reversibility of the inhibitory effect on SMC proliferation” value in data set [6] (cultures washed on day 7, recovery counted day 13) was “completely reversible”.
